Source: publication PMC10043345, “Discovery of BAR502, as potent steroidal antagonist of leukemia inhibitory factor receptor for the treatment of pancreatic adenocarcinoma” (Frontiers in Oncology, 2023)
“Also recorded” adds a separate entry of the source.

Tests used:
LIF/LIFR complex = target: T1, LIF/LIFR complex (Homo sapiens, UniProt P42702); test: Alpha Screen inhibition of LIFR/LIF binding (cell-free); conditions: for effect on LIF/LIFR complex formation (LIFR antagonism), in words: cell-free Alpha Screen; for IC50: cell-free, LIFR 4.5 nM, biotinylated LIF 9 nM, read-out: LIFR IC50 AlphaScreen (inhibition of LIFR/LIF binding)
T1 construct: purchased Sino Biological (LIFR); R&D Systems (LIF)
T1 sequence (P42702 45-833 limits assumed): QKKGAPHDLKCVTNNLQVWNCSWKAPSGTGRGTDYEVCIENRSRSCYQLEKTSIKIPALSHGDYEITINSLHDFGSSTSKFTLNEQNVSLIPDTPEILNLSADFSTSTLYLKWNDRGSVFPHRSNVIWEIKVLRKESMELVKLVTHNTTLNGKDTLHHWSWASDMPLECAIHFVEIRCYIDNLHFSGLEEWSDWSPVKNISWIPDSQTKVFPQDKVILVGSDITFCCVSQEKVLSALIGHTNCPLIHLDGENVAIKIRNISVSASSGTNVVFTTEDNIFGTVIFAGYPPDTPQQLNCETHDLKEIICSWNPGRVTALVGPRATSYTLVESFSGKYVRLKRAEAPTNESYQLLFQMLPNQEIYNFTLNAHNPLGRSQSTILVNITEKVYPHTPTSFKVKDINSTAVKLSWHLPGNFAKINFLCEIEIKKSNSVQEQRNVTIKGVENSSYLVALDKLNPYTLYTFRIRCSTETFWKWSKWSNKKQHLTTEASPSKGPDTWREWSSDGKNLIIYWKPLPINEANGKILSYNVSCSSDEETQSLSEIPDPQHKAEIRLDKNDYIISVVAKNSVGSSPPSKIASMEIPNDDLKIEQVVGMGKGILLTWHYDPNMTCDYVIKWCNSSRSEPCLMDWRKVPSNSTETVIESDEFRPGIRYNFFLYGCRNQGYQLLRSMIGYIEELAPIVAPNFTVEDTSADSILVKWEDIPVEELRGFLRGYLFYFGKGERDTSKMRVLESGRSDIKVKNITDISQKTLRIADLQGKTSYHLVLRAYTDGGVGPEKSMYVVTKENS
Procedure: Recombinant human LIFR (His Tag) and biotinylated recombinant human LIF were purchased from Sino Biologicals (Sino Biological Europe GmbH, Dusseldorf, Germany) and R&D Systems (Abingdon, UK), respectively, and both were reconstituted as required by the manufacturer. […] The assay was carried out in white, low-volume, 384-well AlphaPlates (PerkinElmer, Waltham, MA, USA) using a final volume of 25 µL and an assay buffer containing 25 mM Hepes (pH 7.4), 100 mM NaCl, and 0.005% Kathon. The concentration of DMSO in each well was maintained at 5%. […] Then, LIF was added (biotinylated, final concentration 9 nM), and the samples were incubated for 15 min prior to adding His-Tag acceptor beads (final concentration 20 ng/µL) for 30 min. Then, streptavidin donor beads were added (final concentration 20 ng/µL), and the plate was incubated in the dark for 2 h and then read in an EnSpire Alpha multimode plate reader (PerkinElmer, Waltham, MA, USA).

MIA PaCa-2 cells = test: Scratch wound healing assay; type: cell-based, human; conditions: LIF 10 ng/mL alone; 0, 24, 48 h
Procedure: MIA PaCa-2 cells were seeded in DMEM complete medium at […] cells/well into 24-well plate and used at 70-80% confluence rate. The assay was performed as previously described ([20]), particularly on the day 1, the cell monolayers were gently scraped vertically with a new 0.2 mL pipette tip across the centre of the well. After scratching, the well was gently washed twice with PBS (Euroclone, Milan, Italy) to remove the detached cells and cell debris and finally fresh medium containing LIF (10 ng/mL) alone or in combination with BAR502 (10 µM) or EC359 (25 nM) was added into each well. Immediately after scratch creation, the 24-plate was placed under a phase-contrast microscope and the first image of the scratch acquired (T0) with using a OPTIKAM Pro Cool 5 – 4083.CL5 camera. Cells were grown for additional 48 h and images taken at 24h (T1) and 48 h (T2). The gap distance between scarps borders was quantified by assessing that area between the two margins of the scratches. All experiments were performed in triplicate.

Row | Molecule | effect on LIF/LIFR complex formation (LIFR antagonism), in words (LIF/LIFR complex) | IC50 (LIF/LIFR complex) [µM] | reduction of the scratch area (wound closure) (MIA PaCa-2 cells)
1 | C[C@H](CCC(=O)O)[C@H]1CC[C@H]2[C@@H]3[C@H](O)C[C@@H]4C[C@H](O)CC[C@]4(C)[C@H]3CC[C@]12C [CDCA, Chenodeoxycholic acid] | slight, thought significant, inhibitory effect; also recorded: weak LIFR antagonists | 48 | –
2 | Leukemia Inhibitory factor [LIF] | – | – | ≈ 16%
3 | C[C@H](CCC(=O)O)[C@H]1CC[C@H]2[C@@H]3CC[C@@H]4C[C@H](O)CC[C@]4(C)[C@H]3CC[C@]12C [LCA, Lithocholic acid] | slight, thought significant, inhibitory effect; also recorded: weak LIFR antagonists | 48.3 | –
